Test results from patent publication US20230266302A1, “SYNTHESIS AND USE OF N-BENZYL SULFONAMIDES” (THE UNIVERSITY OF TULSA, priority 2020, published 2023).

Columns and labels:
Assay in all cases: Cytotoxicity testing, CellTiter-Blue assay (FIG. 9)
Type in all cases: cell-based
Settings in all cases: 100 μM, 24 hour compound incubation, result in words
HeLa (cervical cancer) = tested on: HeLa (cervical cancer)
Description: (§1) The cytotoxicity tests were carried out in the following manner. Living cells are known to convert resazurin to the fluorescent compound resorufin. Test systems which rely upon this reaction are commercially available. One such test is known at the Cell Titer Blue Cell Viability test assay from Promega. Cell cultures for each of the identified cancer lines were obtained from ATCC and maintained in Dulbecco's Modified Eagle Medium (DMEM) supplemented with 10% fetal bovine serum (FBS) and pen/strep. As known to those skilled in the art, DMEM typically includes the components identified below.
(§2) The test method provides for incubating the cell cultures at 37° C. Additionally, the cell cultures are kept under an atmosphere containing 5% CO2. After allowing for proliferation of the cells, the cells were distributed across a plurality of test cells containing from 100 μL DMEM plus 10% FBS and allowed to attach to the surface of the cells. Typically, the time for attachment will require about 12 hours to about 18 hours. Following attachment, the cells were treated with either a solvent control or the N-benzyl sulfonamide compound of interest dissolved in a suitable solvent such as but not limited to DMSO. Typically, about 18 hours to about 36 hours are required to determine the effect of the N-benzyl sulfonamide compound of interest on cell viability. Following treatment of the cells with the N-benzyl sulfonamide or control, the toxicity of the compound to the cells will be determined by addition of 10 μl of CellTiter-Blue reagent, i.e. resazurin. Typically, the resazurin is added between about 18 hours to about 36 hours after treating the cells with the N-benzyl sulfonamides or the control. The cells are allowed to consume and convert the resazurin to resorufin for about one to four hours. Subsequently, the fluorescence of […] is measured by excitation at 560 nm and recording the emission at 590 nm within an instrument configured to measure fluorescence intensity. Two commercially available systems are the BioTek Cytation 5 plate reader and the Promega Glomax Multi+detection system. […] The method for determining IC50 values is well known in the art and will not be discussed further. As known to those skilled in the art, IC50 is a quantitative measure that indicates how much of a particular inhibitory substance (e.g. drug) is needed to inhibit, in vitro, a given biological process or biological component by 50%. Therefore, each N-benzyl sulfonamide will be tested over a range of concentrations. Typically, the concentration ranges will be: 6.25 μM, 12.5 μM, 25 μM, 50 μM, and 100 μM. The control in this method is normally dimethyl […] (DMSO) or other solvent suitable for dissolving the compounds to be tested. FIG. 8 depicts the % cell viability for the indicated compounds depicted in FIG. 7.
(§3) The Table of FIG. 9 provides the results of cytotoxicity testing a 100 μM concentration of compounds 2, 5-9, 11-12, 14, 16, 18-22 of FIG. 7 against the indicated cancer cell lines using CellTiter-Blue assay with 24 hour compound incubation time. FIG. 9 reflects the percent reduction in cell viability resulting from the treatment of the indicated cancer cell lines with the indicated compounds. As indicated by the boxed values in FIG. 9, compounds 2, 5, and 6 would be considered effective against H293. […] The Table of FIG. 10 provides a comparison of the IC50 values of select compounds from FIG. 7 to the IC50 values of two known anti-cancer sulfonamides, ABT-751 and Indisulam. As indicated by FIG. 10, the identified compounds performed remarkably better than the known anti-cancer agents. Thus, the identified compounds are expected to have greater anti-cancer potency.

[1] = tested on: MCF10A (non-cancerous breast)
Description: as §1, §2, §3

NCI-H196 (lung cancer) = tested on: NCI-H196 (lung cancer)
Description: as §1, §2, §3

Cc1ccc(S(=O)(=O)NCc2c[nH]c3cccc(Br)c23)cc1 [Compound 5, N-[(4-bromo-1H-indol-3-yl)methyl]-4-methylbenzenesulfonamide]
displayed effectiveness: percent reduction in cell viability, HeLa (HeLa (cervical cancer)) | percent reduction in cell viability, MCF10A [1] | percent reduction in cell viability, NCI-H196 (NCI-H196 (lung cancer))
